Reference: PMC12084297, “Cytoplasmic connexin43-microtubule interactions promote glioblastoma stem-like cell maintenance and tumorigenicity” (Cell Death & Disease, 2025)

Key:
β-tubulin = assay: Cellular thermal shift assay (CETSA), β-tubulin target engagement; type: binding, human; conditions: fresh VTC-037 GSC lysates, 3-fold dilutions 222.2-2.7 nM, 1 h, heat challenge 57 °C (Tagg(75)) 20 min, immunoblot, normalized to DMSO control
Protocol: (§1) For an initial determination of the melting profile of α- and β- tubulin, fresh lysates of GSCs prepared in non-denaturing buffer were dispensed into 96-well PCR plate in stem cell medium (approximately 10,000 cells/well/50 µl), and then subjected to temperature gradient (37–65 °C) for 20 min. Subsequently, centrifugation was performed at 14,000 rpm to sediment the unstable protein content. Supernatant was collected and SDS-PAGE gel was run, and immunodetection was performed to detect α- and β- tubulin using specific primary antibodies described above. A rabbit antibody against β-actin (Cell Signaling Technology; 4970) was used as negative control. Band intensities were quantified on LI-COR C-DiGit Blot Scanner, and subsequently Tagg(50) and Tagg(75) values were calculated for α- and β- tubulin. In a subsequent run, fresh lysates of GSCs were treated at various doses with 3-fold dilutions (222.2, 74.0, 24.7, 8.2 and 2.7 nM) of peptides JM2 and JM2-scrambled, together with DMSO as control, for 1 h. Samples were then subjected to heat challenge at 57 °C for 20 min, and unstable protein was removed by centrifugation step. Following an immunoblotting step, band intensities of the stable tubulin was quantified, and normalized to DMSO control. EC50 values of engagement for both peptide with α- and β- tubulin were subsequently calculated.

LN229/GSC tumor = assay: TUNEL and H&E of LN229/GSC-derived tumor sections; type: in vivo, mouse (BALB/c nude), human LN229/GSC cells; conditions: LN229/GSC tumors, 300 µM intratumorally every other day, after 33 days
Protocol: Tumors were harvested, snap-frozen in Tissue-Tek® O.C.T. compound (Sakura), and stored at −80 °C until sectioning. […] sections were cut using a Leica CM1850 UV cryostat, placed onto Superfrost Plus^TM slides (Fisher Scientific) and fixed in −20 °C acetone for 5 minutes before air drying. Slides were stored at −80 °C prior to labeling. Tumors sections were then rehydrated in PBS for 5 min, permeabilized in 0.1% Triton X-100 in PBS for 1 h at room temperature, and washed four times with PBS (2 x quick, 2 × 5 min) prior to incubating with streptavidin conjugated to Alexa Fluor 647 (Thermo Fisher) diluted in high-salt buffer (0.5 M NaCl, 10 mM Hepes) for 30 min at room temperature. Tumor sections were then washed four times with high-salt buffer (2 x quick, 2 × 10 min), and twice with PBS (2 × 5 min) before using One-step TUNEL In Situ Apoptosis kit (Green Elab Fluor® 488; Elabscience), according to manufacturer’s instructions. Tumor sections were then washed in PBS (3 × 5 min), incubated with DAPI (Thermo Fisher) in PBS for 5 min, and washed again with PBS (4 × 5 min) before the slides were mounted using Prolong Gold Antifade (Thermo Fisher). GBM22-derived tumor sections were analyzed using fluorescence confocal microscopy on a Nikon NIE upright confocal microscope, while LN229/GSC-derived tumor sections were observed using LED illumination microscopy on a Revolve microscope. For hematoxylin and eosin (H&E) staining, tumor sections were stained using a Histo-Tek® SL Slide Stainer (Sakura), and observed using phase contrast microscopy on a Revolve microscope. Investigators were blinded for all image acquisition experiments.

α-tubulin = assay: Cellular thermal shift assay (CETSA), α-tubulin target engagement; type: binding, human; conditions: fresh VTC-037 GSC lysates, 3-fold dilutions 222.2-2.7 nM, 1 h, heat challenge 57 °C (Tagg(75)) 20 min, immunoblot, normalized to DMSO control
Protocol: as §1

VTC-034 GSCs = assay: Peptide uptake by confocal fluorescence microscopy, VTC-034 GSCs; type: in vitro ADME, human; conditions: 50 μM, 24 h, fluorophore-conjugated streptavidin
Protocol: Cells were washed once with warm PBS before fixing in 4% paraformaldehyde for 20 min at room temperature or ice-cold methanol for 5 min on ice, washed twice, and held in PBS at 4°C until immunostaining was conducted. Cells were permeabilized and blocked in 5% normal goat or donkey serum (Fisher Scientific) and 0.1% Triton X-100 in PBS for 2 h at room temperature. Primary antibodies rabbit anti-Cx43 (MilliporeSigma; C6219), mouse anti-pan Cadherin (MilliporeSigma; C1821), or mouse anti-α-tubulin (MilliporeSigma; T6199) were diluted in blocking buffer and labeling was performed overnight at 4 °C. Cells were washed six times with PBS (2 × quick, 2 × 10 min, 2 × 5 min) prior to incubating with goat anti-mouse or -rabbit IgG secondary antibodies (Thermo Fisher) conjugated to Alexa Fluor 488 (A-11029; A-11034), Alexa Fluor 555 (A-21424; A-21429), or Alexa Fluor 647 (A-21236; A-21245) for confocal; or donkey anti-mouse or -rabbit IgG secondary antibodies conjugated to CF568 (Biotium; 20105 and 20098) or Alexa Fluor 647 (Jackson Immunoresearch; 715-605-151 and 711-605-152) for stochastic optical reconstruction microscopy (STORM; see section below), for 1 h at room temperature. DAPI (Thermo Fisher) was included with secondary antibodies to counterstain nuclei for confocal only and was omitted from labeling for STORM. […]

HEY1 mRNA = HEY1 mRNA by RT-qPCR, VTC-001 GSCs; type: cell-based, human; conditions: 50 μM, 24 h, RT-qPCR (as worded in text; no figure panel described)
Protocol: RNA was extracted using the PureLink^TM RNA mini extraction kit (Thermo Fisher) and on-column DNA digestion was completed using PureLink^TM DNase according to the manufacturer’s instructions. RNA was reverse transcribed to generate cDNA using the iScript^TM Reverse Transcription SuperMix for RT-qPCR kit (Bio-Rad Laboratories). Real-time PCR was performed using the SYBR select Master Mix for CFX (Thermo Fisher) in hard-shell 96-well PCR plates (Bio-Rad Laboratories) on a CFX Connect Real Time System (Bio-Rad Laboratories). Primer sequences used were: hNOTCH1_Fwd: 5’-CGCACAAGGTGTCTTCCAG-3’; hNOTCH1_Rev: 5’-CGGCGTGTGAGTTGATGA-3’; hHES1_Fwd: 5’-GGCTGGAGAGGCGGCTAA-3’; hHES1_Rev: 5’-[…]-3’; hHEY1_Fwd: 5’-[…]-3’; hHEY1_Rev: 5’-[…]-3’.

## GSDVFKRKFVDRKVG [JM2-scrambled, reference compound]
β-tubulin
  EC50: > 200 nM
LN229/GSC tumor
  Cell death in tumor sections (TUNEL): no significant cell death was observed
α-tubulin
  EC50: > 200 nM
VTC-034 GSCs
  Peptide localization after uptake: localized within the cytoplasm of GSCs

## VFFKGVKDRVKGRSD [JM2]
β-tubulin
  EC50: 7.9 nM
LN229/GSC tumor
  Cell death in tumor sections (H&E): further confirmed by H&E staining
  Cell death in tumor sections (TUNEL): increased LN229-derived GSC death that positively correlated with the presence of JM2 within the tumors
α-tubulin
  EC50: 8.4 nM
VTC-034 GSCs
  Peptide localization after uptake: localized within the cytoplasm of GSCs
HEY1 mRNA
  Hey1 mRNA expression: significantly decreased the expression of Notch downstream targets Hes1 and Hey1 at the transcription level
